Converted amounts (≈) assume the structure as drawn. Marks after values point to notes of the source that are not given here. Non-standard residues stand in square brackets, D forms with d. Residues, ends and D or L forms follow the SMILES beside them. dPhe(3,4-F2) = N[C@H](Cc1ccc(F)c(F)c1)C(=O)O
Assays:
[1] = tested on: Escherichia coli ATCC 25922; assay: Oral formulations on mice with systemic bacterial infection; assay type: in vivo, ICR mice; details: three times a day for 7 days; for Number of mice that died on each day after infection: day 4 / Number of mice that died on each day after infection: day 5 / Number of mice that died on each day after infection: day 6 / Number of mice that died on each day after infection: day 7 / Number of mice that died on each day after infection: day 8 / Average survival times (Days): n = 10; for Average survival times (Days): observed for 14 d
Outline: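 Survival time and deaths were logged over a 14 d observation after oral gavage dosing (by body weight, thrice daily, 7 days, starting right after infection). Model: mixed-sex ICR mice, n=10 per group, intraperitoneal injection of E. coli ATCC 25922 suspension (0.2 mL, 1×10^7 CFU/mL).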

[2] = Serum stability assay (residual level by RP-HPLC); details: human
[3] = tested on: Corynebacterium ATCC 7715; assay type: cell-based
Outline: (§1)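 Minimum inhibitory concentration served as the read-out, obtained with a twofold serial dilution microdilution method run per CLSI guidelines and performed in five parallel replicates.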

[4] = tested on: Escherichia coli ATCC 25922; assay type: cell-based
Outline: as §1

[5] = tested on: Bacillus subtilis ATCC 6633; assay type: cell-based
Outline: as §1

[6] = tested on: Candida albicans ATCC MYA-2876; assay type: cell-based
Outline: as §1

[7] = tested on: Staphylococcus aureus ATCC 25923; assay type: cell-based
Outline: as §1

[8] = tested on: Serratia marcescens ATCC 29021; assay type: cell-based
Outline: as §1

[9] = tested on: Klebsiella pneumoniae ATCC 700603; assay type: cell-based
Outline: as §1

[10] = tested on: Candida glabrata ATCC 15126; assay type: cell-based
Outline: as §1

[11] = tested on: Salmonella typhimurium ATCC 14028; assay type: cell-based
Outline: as §1

[12] = tested on: Pseudomonas aeruginosa ATCC 27853; assay type: cell-based
Outline: as §1

Candida krusei ATCC 6258 = assay type: cell-based
Outline: as §1

Candida utilis ATCC 9950 = assay type: cell-based
Outline: as §1

[13] = tested on: Candida tropicalis ATCC 750; assay type: cell-based
Outline: as §1

[14] = tested on: Trichophyton ATCC MYA-4438; assay type: cell-based
Outline: as §1

Enterococcus ATCC 29212 = assay type: cell-based
Outline: as §1

rabbit red blood cells = assay type: cell-based; details: red cells of rabbit, 1 h
[15] = tested on: Staphylococcus aureus (NRS 384); details: NRS 384, 3 h
Description: Trypsin (250 U/mg, pH=8.0) and AMPs (LV-1 to LV-30) were mixed in a ratio of 1:10 (w/w) and added to a reaction buffer (0.2 M sodium phosphate, 1 mM CaCl2), pH 7.5), and then incubated at 37° C. for 3 h.

[16] = tested on: Shigella flexneri ATCC 12022; assay: MIC against clinically common bacterial strain; assay type: cell-based
Outline: as §1

## CC(=O)N[C@H](CCCCN)C(=O)N[C@H](CCCCN)C(=O)N[C@H](CC(C)C)C(=O)N[C@H](CC(C)C)C(=O)N[C@H](Cc1ccc(F)c(F)c1)C(=O)N[C@H](CCCNC(=N)N)C(=O)N[C@H](CC(C)C)C(=O)N[C@H](CCCCN)C(=O)N[C@H](Cc1ccc(F)c(F)c1)C(=O)N[C@H](CCCNC(=N)N)C(=O)N[C@H](CCCCN)C(N)=O [LV-25] (Ac-[dK][dK][dL][dL][dPhe(3,4-F2)][dR][dL][dK][dPhe(3,4-F2)][dR][dK]-NH2)
[1]; 0.2 mg/kg gavage
  Number of mice that died on each day after infection: day 4: 1 Mouse
  Number of mice that died on each day after infection: day 5: 1 Mouse
  Number of mice that died on each day after infection: day 6: 2 Mouse
  Number of mice that died on each day after infection: day 7: 2 Mouse
  Number of mice that died on each day after infection: day 8: 1 Mouse
  Average survival times (Days): 8.5** Days
[1]; 1 mg/kg gavage
  Number of mice that died on each day after infection: day 4: 1 Mouse
  Number of mice that died on each day after infection: day 5: 1 Mouse
  Number of mice that died on each day after infection: day 6: 0 Mouse
  Number of mice that died on each day after infection: day 7: 1 Mouse
  Number of mice that died on each day after infection: day 8: 1 Mouse
  Average survival times (Days): 10.8*** Days
[1]; 5 mg/kg gavage
  Number of mice that died on each day after infection: day 4: 0 Mouse
  Number of mice that died on each day after infection: day 5: 3 Mouse
  Number of mice that died on each day after infection: day 6: 0 Mouse
  Number of mice that died on each day after infection: day 7: 2 Mouse
  Number of mice that died on each day after infection: day 8: 0 Mouse
  Average survival times (Days): 9.9** Days
[1]; gavage, observed 14 d
  survival time of mice infected with Escherichia coli: superior to those of the Levofloxacin group
[2]
  remaining at 12 h, 0.91 mg/mL: 97.8%
[3]
  MIC Corynebacterium ATCC 7715: 2 µg/mL (≈ 1.26 µM)
[4]
  MIC Escherichia coli ATCC 25922: 1 µg/mL (≈ 0.629 µM)
[5]
  MIC Bacillus subtilis ATCC 6633: 8 µg/mL (≈ 5.03 µM)
[6]
  MIC Candida albicans ATCC MYA-2876: 8 µg/mL (≈ 5.03 µM)
[7]
  MIC Staphylococcus aureus ATCC 25923: 2 µg/mL (≈ 1.26 µM)
[8]
  MIC Serratia marcescens ATCC 29021: 4 µg/mL (≈ 2.52 µM)
[9]
  MIC Klebsiella pneumoniae ATCC 700603: 8 µg/mL (≈ 5.03 µM)
[10]
  MIC Candida glabrata ATCC 15126: 8 µg/mL (≈ 5.03 µM)
[11]
  MIC Salmonella typhimurium ATCC 14028: 1 µg/mL (≈ 0.629 µM)
[12]
  MIC Pseudomonas aeruginosa ATCC 27853: 1 µg/mL (≈ 0.629 µM)
Candida krusei ATCC 6258
  MIC Candida krusei ATCC 6258: 8 µg/mL (≈ 5.03 µM)
Candida utilis ATCC 9950
  MIC Candida utilis ATCC 9950: 8 µg/mL (≈ 5.03 µM)
[13]
  MIC Candida tropicalis ATCC 750: 8 µg/mL (≈ 5.03 µM)
[14]
  MIC Trichophyton ATCC MYA-4438: 8 µg/mL (≈ 5.03 µM)
Enterococcus ATCC 29212
  MIC Enterococcus ATCC 29212: 2 µg/mL (≈ 1.26 µM)
Rabbit red blood cells
  MHC (minimum hemolytic concentration, lowest concentration causing 10% hemolysis): >1000 µg/mL
[15]
  Trypsin MIC: 1 µg/mL
[16]
  MIC Shigella flexneri ATCC 12022: 2 µg/mL (≈ 1.26 µM)
